Reference: patent US9174980B2, “Heterocyclic compounds as inhibitors of leukotriene production” (Boehringer Ingelheim International GmbH, priority 2012, dated 2015)

Assays:
[1] = tested on: synthesis of LTB4 in human whole blood; assay: Human whole blood assay (calcimycin-stimulated LTB4 synthesis); assay type: cell-based; settings: Homo sapiens; read-out: Human Whole Blood LTB4 Assay for FLAP (IC50 nM)
Outline: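 LTB4 levels in plasma were measured by antibody-based HTRF after heparinized human whole blood, pretreated with compound (15 min, 37° C), was challenged with 20 μM calcimycin for 30 min at 37° C.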

[2] = target: T1, recombinant human FLAP protein (Homo sapiens, UniProt P20292); assay: FLAP binding assay (Scintillation Proximity Assay, displacement of [125I]L-691,831); settings: read-out: Human FLAP SPA Binding (IC50 nM)
T1 construct: made in house; host or cells: Sf9 insect cells (membrane fraction, 100,000 x g pellet)
T1 sequence (P20292 1-161): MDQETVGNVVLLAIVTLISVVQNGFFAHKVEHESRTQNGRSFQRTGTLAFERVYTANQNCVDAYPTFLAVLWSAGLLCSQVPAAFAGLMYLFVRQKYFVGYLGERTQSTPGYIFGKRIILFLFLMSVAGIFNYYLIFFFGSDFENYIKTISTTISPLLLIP
Outline: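 Scintillation proximity displacement format: 0.08 nM iodinated MK-591 analog [125I]L-691,831 competes with test compound for human FLAP in sf9 insect-cell membranes (5 μg/well, WGA beads), 2 h with shaking, pH 7.5 Tris buffer. 10 μM cold L-691,831 defines non-specific binding.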

SMILES | IC50 [1] | IC50 [2]
CS(=O)(=O)CCNC(=O)c1cccc2c(C3(c4ccc(-c5cnc(N)nc5)cc4)CCC3)c[nH]c12 [Example 3, 3-{1-[4-(2-aminopyrimidin-5-yl)phenyl]cyclobutyl}-N-[2-(methylsulfonyl)ethyl]-1H-indole-7-carboxamide] | 490 nM | 1.4 nM
CC(C)C(C)(c1ccc(-c2cnc(N)nc2)cc1)c1n[nH]c(-c2ccccc2)n1 (stereo not shown) [Example 96, 5-{4-[3-methyl-2-(5-phenyl-1H-1,2,4-triazol-3-yl)butan-2-yl]phenyl}pyrimidin-2-amine] | 240 nM | 1.4 nM
Nc1ncc(-c2ccc(C3(c4c[nH]c5ccccc45)CCC3)cc2)cn1 [Example 81, 5-{4-[1-(1H-indol-3-yl)cyclobutyl]phenyl}pyrimidin-2-amine] | 370 nM | 5.1 nM
Cc1cc(CN(C)C(=O)c2cccc3c(C4(c5ccc(-c6cnc(N)nc6)cc5)CCC4)c[nH]c23)no1 [Example 17, 3-{1-[4-(2-aminopyrimidin-5-yl)phenyl]cyclobutyl}-N-methyl-N-[(5-methyl-1,2-oxazol-3-yl)methyl]-1H-indole-7-carboxamide] | 250 nM | 3.4 nM
COc1cncc(-c2ccc(C(c3ncc(-c4ccc(CO)nc4)s3)C(C)C)cc2)c1 (stereo not shown) [Example 25, [5-(2-{1-[4-(5-methoxypyridin-3-yl)phenyl]-2-methylpropyl}-1,3-thiazol-5-yl)pyridin-2-yl]methanol] | > 5000 nM | 36 nM
Nc1ncc(-c2ccc(C3(c4c[nH]c5cccnc45)CCC3)cc2)cn1 [Example 108, 5-{4-[1-(1H-pyrrolo[3,2-b]pyridin-3-yl)cyclobutyl]phenyl}pyrimidin-2-amine] | 360 nM | 3 nM
Cn1cc(C(c2ccc(-c3cnc(N)nc3)nc2)C(C)(C)C)c2ccccc21 (stereo not shown) [Example 122, 5-{5-[2,2-dimethyl-1-(1-methyl-1H-indol-3-yl)propyl]pyridin-2-yl}pyrimidin-2-amine] | > 5000 nM | 75 nM
Cc1ccc(-c2cnc(C3(c4ccc(-c5cnc(N)nc5)cc4)CCC3)o2)cn1 [Example 16, 5-(4-{1-[5-(6-methylpyridin-3-yl)-1,3-oxazol-2-yl]cyclobutyl}phenyl)pyrimidin-2-amine] | 1400 nM | 7.1 nM
CC(C)C(C)(c1ccc(-c2cnc(N)nc2)cc1)c1c[nH]c2cc(C(=O)N(C)CCO)ccc12 (stereo not shown) [Example 79, 3-{2-[4-(2-aminopyrimidin-5-yl)phenyl]-3-methylbutan-2-yl}-N-(2-hydroxyethyl)-N-methyl-1H-indole-6-carboxamide] | 2600 nM | 8.5 nM
Cc1cn(C(C)(c2ccc(-c3cnc(N)nc3)cc2)C(C)C)c2ccccc12 (stereo not shown) [Example 43, 5-{4-[3-methyl-2-(3-methyl-1H-indol-1-yl)butan-2-yl]phenyl}pyrimidin-2-amine] | 1500 nM | 30 nM
Nc1ncc(-c2ccc(C3(c4c[nH]c5c(C(=O)NCCS(N)(=O)=O)cccc45)CCC3)cc2)cn1 [Example 4, 3-{1-[4-(2-aminopyrimidin-5-yl)phenyl]cyclobutyl}-N-(2-sulfamoylethyl)-1H-indole-7-carboxamide] | 2800 nM | 1.2 nM
Nc1ncc(-c2ccc(C3(c4nc5ccccc5[nH]4)CCC3)cn2)cn1 [Example 137, 5-{5-[1-(1H-benzimidazol-2-yl)cyclobutyl]pyridin-2-yl}pyrimidin-2-amine] | > 5000 nM | 410 nM
CC(C)C(C)(c1ccc(-c2cnc(N)nc2)cc1)c1c[nH]c2cc(C(=O)N3CCOCC3)ccc12 (stereo not shown) [Example 77, (3-{2-[4-(2-aminopyrimidin-5-yl)phenyl]-3-methylbutan-2-yl}-1H-indol-6-yl)(morpholin-4-yl)methanone] | 640 nM | 1.7 nM
CCC(C)(c1ccc(-c2cnc(N)nc2)cc1)c1c[nH]c2ccccc12 (stereo not shown) [Example 91, 5-{4-[2-(1H-indol-3-yl)butan-2-yl]phenyl}pyrimidin-2-amine] | 230 nM | 2.7 nM
Nc1ncc(-c2ccc(C3(c4c[nH]c5ncccc45)CCC3)cc2)cn1 [Example 103, 5-{4-[1-(1H-pyrrolo[2,3-b]pyridin-3-yl)cyclobutyl]phenyl}pyrimidin-2-amine] | 160 nM | 2.5 nM
Nc1ncc(-c2ccc(C3(c4c[nH]c5c(C(=O)NCCO)cccc45)CCC3)cc2)cn1 [Example 119, 3-{1-[4-(2-aminopyrimidin-5-yl)phenyl]cyclobutyl}-N-(2-hydroxyethyl)-1H-indole-7-carboxamide] | 170 nM | 1.5 nM
CC(C)C(C)(c1ccc(-c2cnc(N)nc2)cc1)c1cn(Cc2ccccn2)c2cc(F)ccc12 (stereo not shown) [Example 49, 5-(4-{2-[6-fluoro-1-(pyridin-2-ylmethyl)-1H-indol-3-yl]-3-methylbutan-2-yl}phenyl)pyrimidin-2-amine] | 810 nM | 2 nM
Nc1ncc(-c2ccc(C3(c4c[nH]c5c(C(=O)N6CCC(O)C6)cccc45)CCC3)cc2)cn1 (stereo not shown) [Example 107, (3-{1-[4-(2-aminopyrimidin-5-yl)phenyl]cyclobutyl}-1H-indol-7-yl)(3-hydroxypyrrolidin-1-yl)methanone] | 180 nM | 1.2 nM
CN(CCO)C(=O)Cn1cc(C2(c3ccc(-c4cnc(N)nc4)cc3)CCC2)c2ccccc21 [Example 132, 2-(3-{1-[4-(2-aminopyrimidin-5-yl)phenyl]cyclobutyl}-1H-indol-1-yl)-N-(2-hydroxyethyl)-N-methylacetamide] | > 5000 nM | 7.2 nM
CC(C)C(C)(c1ccc(-c2cnc(N)nc2)cc1)c1nc(-c2cccnc2)no1 (stereo not shown) [Example 101, 5-(4-{3-methyl-2-[3-(pyridin-3-yl)-1,2,4-oxadiazol-5-yl]butan-2-yl}phenyl)pyrimidin-2-amine] | 1400 nM | 12 nM
COC(=O)Cn1cc(C2(c3ccc(-c4cnc(N)nc4)cc3)CCC2)c2ccccc21 [Example 123, methyl (3-{1-[4-(2-aminopyrimidin-5-yl)phenyl]cyclobutyl}-1H-indol-1-yl)-acetate] | > 5000 nM | 7.9 nM

Results, then the compound that gave them:

IC50 [1] | IC50 [2] | SMILES
4400 nM | 200 nM | COC(=O)c1cc(-c2ccc(F)nc2)c(C2(c3ccc(-c4cnc(N)nc4)cc3)CCC2)[nH]1 [Example 179, methyl 5-{1-[4-(2-aminopyrimidin-5-yl)phenyl]cyclobutyl}-4-(6-fluoropyridin-3-yl)-1H-pyrrole-2-carboxylate]
1400 nM | 38 nM | COC(=O)c1cc(-c2cnn(C)c2)c(C2(c3ccc(-c4cnc(N)nc4)cc3)CCC2)n1C [Example 182, methyl 5-{1-[4-(2-aminopyrimidin-5-yl)phenyl]cyclobutyl}-1-methyl-4-(1-methyl-1H-pyrazol-4-yl)-1H-pyrrole-2-carboxylate]
> 5000 nM | 270 nM | Cn1cc(-c2c(C3(c4ccc(-c5cnc(N)nc5)cc4)CCC3)c3ccccc3n2C(=O)OC(C)(C)C)cn1 [Example 188, tert-butyl 3-{1-[4-(2-aminopyrimidin-5-yl)phenyl]cyclobutyl}-2-(1-methyl-1H-pyrazol-4-yl)-1H-indole-1-carboxylate]
55 nM | 1.7 nM | Cc1nccc2c(C3(c4ccc(-c5cnc(N)nc5)cc4)CCC3)c[nH]c12 [Example 152, 5-{4-[1-(7-methyl-1H-pyrrolo[2,3-c]pyridin-3-yl)cyclobutyl]phenyl}pyrimidin-2-amine]
190 nM | 36 nM | CC(C)(O)Cn1cc(-c2coc([C@@](C)(c3ccc(-c4cnc(N)nc4)cc3)C3CC3)n2)cn1 [Example 203, 1-[4-(2-{(R)-1-[4-(2-Amino-pyrimidin-5-yl)-phenyl]-1-cyclopropyl-ethyl}-oxazol-4-yl)-pyrazol-1-yl]-2-methyl-propan-2-ol]
2500 nM | 4 nM | COc1ccc(-c2nnc(C3(c4ccc(-c5cnc(N)nc5)cc4)CCC3)[nH]2)cn1 [Example 144, 5-(4-{1-[5-(6-methoxypyridin-3-yl)-4H-1,2,4-triazol-3-yl]cyclobutyl}phenyl)pyrimidin-2-amine]
930 nM | 180 nM | Cn1cc(-c2coc(C(C)(c3ccc(-c4cnc(N)nc4)nc3)C3CC3)n2)cn1 (stereo not shown) [Example 206, 5-(5-{1-Cyclopropyl-1-[4-(1-methyl-1H-pyrazol-4-yl)-oxazol-2-yl]-ethyl}-pyridin-2-yl)-pyrimidin-2-ylamine]
3200 nM | 59 nM | COC(=O)c1ccc(C2(c3ccc(-c4cnc(N)nc4)cc3)CCC2)[nH]1 [Example 167, methyl 5-[1-[4-(2-aminopyrimidin-5-yl)phenyl]cyclobutyl]-1H-pyrrole-2-carboxylate]
> 5000 nM | 10 nM | Nc1ncc(-c2ccc(C3(c4nc5ccccc5s4)CCC3)cn2)cn1 [Example 140, 5-{5-[1-(1,3-benzothiazol-2-yl)cyclobutyl]pyridin-2-yl}pyrimidin-2-amine]
3600 nM | 72 nM | COC(=O)c1cc(-c2ccc(F)cc2)c(C2(c3ccc(-c4cnc(N)nc4)cc3)CCC2)[nH]1 [Example 166, methyl 5-{1-[4-(2-aminopyrimidin-5-yl)phenyl]cyclobutyl}-4-(4-fluorophenyl)-1H-pyrrole-2-carboxylate]
270 nM | 8.9 nM | CN(C)C(=O)Cn1cc(-c2cnc(C3(c4ccc(-c5cnc(N)nc5)cc4)CCC3)s2)cn1 [Example 180, 2-[4-(2-{1-[4-(2-aminopyrimidin-5-yl)phenyl]cyclobutyl}-1,3-thiazol-5-yl)-1H-pyrazol-1-yl]-N,N-dimethylacetamide]
